# Measured values: patent US10894807B2 (Siemens Medical Solutions USA, Inc., priority 2011, dated 2021)
# Target: human PSMA (Homo sapiens (Human), UniProt Q04609)
# Test: Enzymatic assay for in vitro evaluation of PSMA inhibitors (fluorescent assay of PSMA activity, NAAG substrate, OPA detection of glutamate)
# Type: biochemical
# Details: for PSMA Blkg % (10 μM): compound at 10 μM
# Description: Enzymatic Assay for In Vitro Evaluation of PSMA Inhibitors
# The inhibitory activity of all compounds was determined using a fluorescent assay of human PSMA activity. The enzyme used in the assay was purchased from R&D Systems and stored at −80° C. The PSMA activity was assayed in a two-step process. In the first step, aliquots of enzyme (0.2 μg/mL) were incubated for 1 h at 37° C. in 50 mM HEPES, 0.1 M NaCl, pH 7.5, in the presence of 20 μM NAAG and the given inhibitor, in a volume of 250 μL, to allow for the accumulation of glutamate produced in the PSMA reaction. In the second step, the amount of accumulated glutamate was measured using the OPA reaction, and the fluorescence was read with a SpectraMax fluorescent plate reader using excitation at 330 nm and emission at 450 nm. The final Ki values for each inhibitor were calculated from the respective IC50 values using the Cheng and Prusoff equation.
# Chain of human PSMA (Q04609 whole entry): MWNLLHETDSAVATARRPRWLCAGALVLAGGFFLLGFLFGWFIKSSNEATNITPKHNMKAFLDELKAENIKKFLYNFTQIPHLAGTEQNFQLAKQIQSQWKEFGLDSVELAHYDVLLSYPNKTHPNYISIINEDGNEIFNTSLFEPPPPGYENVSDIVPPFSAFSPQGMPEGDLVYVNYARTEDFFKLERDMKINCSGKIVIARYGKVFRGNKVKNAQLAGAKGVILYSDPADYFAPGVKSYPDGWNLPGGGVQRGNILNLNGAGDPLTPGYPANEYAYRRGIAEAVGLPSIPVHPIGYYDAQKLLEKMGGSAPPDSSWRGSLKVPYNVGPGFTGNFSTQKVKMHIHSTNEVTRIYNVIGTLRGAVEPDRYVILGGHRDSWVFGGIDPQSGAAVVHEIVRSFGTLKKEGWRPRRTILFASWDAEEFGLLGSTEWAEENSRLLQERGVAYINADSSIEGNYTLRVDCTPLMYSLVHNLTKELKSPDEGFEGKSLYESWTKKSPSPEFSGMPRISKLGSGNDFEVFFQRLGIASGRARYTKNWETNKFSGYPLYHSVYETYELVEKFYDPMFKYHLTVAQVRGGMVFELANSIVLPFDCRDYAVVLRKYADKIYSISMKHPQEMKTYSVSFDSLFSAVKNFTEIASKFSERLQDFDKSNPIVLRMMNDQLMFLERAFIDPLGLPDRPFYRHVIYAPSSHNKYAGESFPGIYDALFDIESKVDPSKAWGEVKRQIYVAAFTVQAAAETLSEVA
PSMA Blkg % (10 μM),Ki,Compound,PSMA Blkg % (1.0 μM)
–,9.4 nM,"O=C(O)CC[C@H](NC(=O)N[C@@H](CCCCNC(=O)N1CCN(C(=O)c2ccc(-n3cc(CCCF)nn3)cc2)CC1)C(=O)O)C(=O)O (stereo in doubt) [P249, (S)-2-(3-((S)-1-Carboxy-5-(4-(4-(4-(3-fluoropropyl)-1H-1,2,3-triazol-1-yl)benzoyl)-piperizine-1-carboxamido)pentyl)ureido)pentanedioic Acid]",–
–,6.6 nM,"O=C(O)CC[C@H](NC(=O)NC(Cc1ccc(NC(=O)N2CCN(C(=O)c3cc(C(=O)N4CCN(C(=O)Nc5ccc(CC(NC(=O)N[C@@H](CCC(=O)O)C(=O)O)C(=O)O)cc5)CC4)cc(-n4cc(CCCF)nn4)c3)CC2)cc1)C(=O)O)C(=O)O (stereo in doubt) [P275, (2S,2′S)-2,2′-(((((1S,1′S)-(((4,4′-(5-(4-(3-Fluoropropyl)-1H-1,2,3-triazol-1-yl)isophthaloyl)bis(piperazine-1,1′-carbonyl))bis(azanediyl))bis(4,1-phenylene))bis(1-carboxyethane-2,1-diyl))bis(azanediyl))bis(carbonyl))bis(azanediyl))dipentanedioic Acid]",–
92%,–,"O=C(O)CC[C@H](NC(=O)N[C@@H](CCCCNC(=O)c1ccc(F)nc1)C(=O)O)C(=O)O [P002, (S)-2-(3-((S)-1-Carboxy-5-(6-fluoronicotinamido)pentyl)ureido)pentanedioic Acid]",–
90%,15.6 nM,"O=C(O)CC[C@H](NC(=O)N[C@@H](CCCCNC(=O)c1ccnc(F)c1)C(=O)O)C(=O)O [P004, (S)-2-(3-((S)-1-Carboxy-5-(2-fluoroisonicotinamido)pentyl)ureido)pentanedioic Acid]",–
89%,40.7 nM,"O=C(O)CC[C@H](NC(=O)N[C@@H](CCCCNC(=O)Cn1cc(CCCF)nn1)C(=O)O)C(=O)O [P005, (S)-2-(3-((S)-1-Carboxy-5-(2-(4-(3-fluoropropyl)-1H-1,2,3-triazol-1-yl)acetamido)pentyl)ureido)pentanedioic Acid]",–
0%,–,"O=C(Cn1cc(CCCF)nn1)NCCCC[C@H](NC(=O)Nc1cc(C(=O)O)cc(C(=O)O)c1)C(=O)O [P007, (S)-5-(3-(1-Carboxy-5-(2-(4-(3-fluoropropyl)-1H-1,2,3-triazol-1-yl)acetamido)pentyl)-ureido)isophthalic Acid]",–
0%,–,"O=C(O)CC[C@H](NC(=O)N(CC(=O)O)NC(=O)Cc1ccccc1)C(=O)O [P011, (S)-2-(1-(Carboxymethyl)-2-(2-phenylacetyl)hydrazinecarboxamido)pentanedioic Acid]",–
0%,–,"O=C(O)CC[C@H](NC(=O)C[C@H](NC(=O)OCc1ccccc1)C(=O)O)C(=O)O [P015, (S)-2-((S)-3-(((Benzyloxy)carbonyl)amino)-3-carboxypropanamido)pentanedioic Acid]",–

# Second part, the compound before the results:
Compound,PSMA Blkg % (10 μM),Ki,PSMA Blkg % (1.0 μM)
"2-(4-(2-(((Benzyloxy)carbonyl)amino)-3-methoxy-3-oxopropyl)-1H-1,2,3-triazol-1-yl)pentanedioic Acid [P124]",10%,–,–
"O=C(O)CC[C@H](NC(=O)N[C@@H](CCCCNc1cc(OCC(COc2ccc([N+](=O)[O-])c(NCCCC[C@H](NC(=O)N[C@@H](CCC(=O)O)C(=O)O)C(=O)O)c2)n2cc(CCCF)nn2)ccc1[N+](=O)[O-])C(=O)O)C(=O)O (stereo in doubt) [P266, (2S)-2-(3-((1)-1-Carboxy-5-((5-(3-(3-(((S)-5-carboxy-5-(3-((S)-1,3-dicarboxypropyl)ureido)pentyl)amino)-4-nitrophenoxy)-2-(4-(3-fluoropropyl)-1H-1,2,3-triazol-1-yl)propoxy)-2-nitrophenyl)amino)pentyl)ureido)pentanedioic Acid]",–,0.3 nM,–
"O=C(O)CCC(NC(=O)N[C@@H](CCCCNc1nc(NCCN(CCNc2ccc([N+](=O)[O-])c(NCCCCC(NC(=O)N[C@@H](CCC(=O)O)C(=O)O)C(=O)O)n2)CCNc2ccc([N+](=O)[O-])c(NCCCCC(NC(=O)N[C@@H](CCC(=O)O)C(=O)O)C(=O)O)n2)ccc1[N+](=O)[O-])C(=O)O)C(=O)O (stereo in doubt) [P270, (2S,2′S,2″S)-2,2′,2″-(((((1S,1′S,1″S)-((6,6′,6″-((Nitrilotris(ethane-2,1-diyl))tris(azanediyl))tris(3-nitropyridine-6,2-diyl))tris(azanediyl))tris(1-carboxypentane-5,1-diyl))tris(azanediyl))tris(carbonyl))tris(azanediyl))tripentanedioic Acid]",–,0.2 nM,71%
"O=C(O)CC[C@H](NC(=O)NC(Cc1ccc(NC(=O)N2CCN(C(=O)c3cc(NC(=O)Cn4cc(CCCF)nn4)cc(C(=O)N4CCN(C(=O)Nc5ccc(CC(NC(=O)N[C@@H](CCC(=O)O)C(=O)O)C(=O)O)cc5)CC4)c3)CC2)cc1)C(=O)O)C(=O)O (stereo in doubt) [P274, (2S,2′S)-2,2′-(((((1S,1′S)-(((4,4′-(5-(2-(4-(3-Fluoropropyl)-1H-1,2,3-triazol-1-yl)acetamido)isophthaloyl)bis(piperazine-1,1′-carbonyl))bis(azanediyl))bis(4,1-phenylene))bis(1-carboxyethane-2,1-diyl))bis(azanediyl))bis(carbonyl))bis(azanediyl))dipentanedioic Acid]",–,13.1 nM,–
"O=C(O)CCC(NC(=O)N[C@@H](CCCCNc1cc(OCC(COc2ccc([N+](=O)[O-])c(NCCCCC(NC(=O)N[C@@H](CCC(=O)O)C(=O)O)C(=O)O)c2)OCc2cn(CCF)nn2)ccc1[N+](=O)[O-])C(=O)O)C(=O)O (stereo in doubt) [P277, (2S)-2-(3-((1S)-1-Carboxy-5-((5-(3-(3-(((S)-5-carboxy-5-(3-((S)-1,3-dicarboxypropyl)ureido)pentyl)amino)-4-nitrophenoxy)-2-((1-(2-fluoroethyl)-1H-1,2,3-triazol-4-yl)methoxy)propoxy)-2-nitrophenyl)amino)pentyl)ureido)pentanedioic Acid]",–,0.4 nM,–
"O=C(O)CCC(NC(=O)NC(CCCCNC(=O)CC(CC(=O)NCCCCC(NC(=O)N[C@@H](CCC(=O)O)C(=O)O)C(=O)O)NC(=O)c1ccc(-n2cc(CCCF)nn2)cc1)C(=O)O)C(=O)O (stereo in doubt) [P278, (3S,7S,23S,27S)-15-(4-(4-(3-Fluoropropyl)-1H-1,2,3-triazol-1-yl)benzamido)-5,13,17,25-tetraoxo-4,6,12,18,24,26-hexaazanonacosane-1,3,7,23,27,29-hexacarboxylic Acid]",–,0.2 nM,–
"O=C(O)CC[C@H](NC(=O)N[C@@H](CCCCNC(=O)N1CCN(C(=O)CCC(CCC(=O)N2CCN(C(=O)NCCCC[C@H](NC(=O)N[C@@H](CCC(=O)O)C(=O)O)C(=O)O)CC2)NC(=O)c2ccc(-n3cc(CCCF)nn3)cc2)CC1)C(=O)O)C(=O)O (stereo in doubt) [P281, (2S,2′S)-2,2′-(((((1S,1′S)-((4,4′-(4-(4-(4-(3-Fluoropropyl)-1H-1,2,3-triazol-1-yl)benzamido)heptanedioyl)bis(piperazine-1,1′-carbonyl))bis(azanediyl))bis(1-carboxypentane-5,1diyl))-bis(azanediyl))-bis(carbonyl))-bis(azanediyl))-dipentanedioic Acid]",–,1.3 nM,–
"O=C(O)CCC(NC(=O)NC(CC1CCN(C(=O)CCC(CCC(=O)N2CCC(C[C@H](NC(=O)NC(CCC(=O)O)C(=O)O)C(=O)O)CC2)NC(=O)c2ccc(-n3cc(CCCF)nn3)cc2)CC1)C(=O)O)C(=O)O (stereo in doubt) [P292, (2S)-2-(3-((1S)-1-Carboxy-2-(1-(7-(4-((S)-2-carboxy-2-(3-((S)-1,3-dicarboxypropyl)-ureido)-ethyl)-piperidin-1-yl)-4-(4-(4-(3-fluoropropyl)-1H-1,2,3-triazol-1-yl)-benzamido)7-oxoheptanoyl)-piperidin-4-yl)ethyl)ureido)pentanedioic Acid]",–,0.7 nM,96%
O=C(O)CC[C@H](NC(=O)N[C@@H](CSCc1ccc(F)cc1)C(=O)O)C(=O)O [P001],97%,50 nM,–
"O=C(O)CC[C@H](NC(=O)N[C@@H](CCCCNC(=O)c1ccc(Cl)nc1)C(=O)O)C(=O)O [P003, (S)-2-(3-((S)-1-Carboxy-5-(6-chloronicotinamido)pentyl)ureido)pentanedioic Acid]",99%,–,–
"O=C(Nc1cc(C(=O)O)cc(C(=O)O)c1)N[C@@H](Cc1ccc(OCCF)cc1)C(=O)O [P006, (S)-5-(3-(1-Carboxy-2-(4-(2-fluoroethoxy)phenyl)ethyl)ureido)isophthalic Acid]",0%,–,–
"O=C(O)CC[C@H](NC(=O)N(CC(=O)O)[C@@H](CCCCNC(=O)OCc1ccccc1)C(=O)O)C(=O)O [P008, (9S,13S)-10-(Carboxymethyl)-3,1-dioxo-1-phenyl-2-oxa-4,10,12-triazapentadecane-9,13,15-tricarboxylic Acid]",21%,–,–
O=C(O)CCC(CP(=O)(O)O)C(=O)O (centres unmarked) [P009],100%,–,–
"O=C(O)CC[C@H](NC(=O)N(CCc1ccccc1)CC(=O)O)C(=O)O [P010, (S)-2-(3-(Carboxymethyl)-3-phenethylureido)pentanedioic Acid]",0%,–,–
"O=C(O)CC[C@H](NC(=O)N(CC(=O)O)[C@@H](CCCCNC(=O)OCc1ccccc1)C(=O)NO)C(=O)O [P012, (S)-2-(3-((S)-6-(((Benzyloxy)carbonyl)amino)-1-(hydroxyamino)-1-oxohexan-2-yl)-3-(carboxymethyl)ureido)pentanedioic Acid]",0%,–,–
"O=C(O)CN(CC(=O)O)NC(=O)NC(CSCc1ccccc1)C(=O)O (centres unmarked) [P013, 2,2′-(2-((2-(Benzylthio)-1-carboxyethyl)carbamoyl)hydrazine-1,1-diyl)diacetic Acid]",16%,–,–
